Measurements reported in patent US11964943B2, “3,5-diarylidenyl-n-substituted-piperid-4-one-derived inhibitors of Stat3 pathway activity and uses thereof” (priority 2017, dated 2024).

Assays:
Format in all cases: cell-based
[1] = tested on: BRCA1, FANCD2, EME1 and MUS81; assay: RT-PCR and immunoblotting of DNA ICL repair factors; settings: DU145 cells, 18 h
Protocol: Whole cell lysates were prepared by incubation of harvested, trypsinised cells with CelLytic™ lysis buffer (Sigma-Aldrich) supplemented with 1× protease and 1× phosphatase inhibitors (Roche). Protein quantification was carried out using a protein assay kit (Bio-Rad). 40 μg of the lysates were denatured by heating for 5 min at 95° C. in sample buffer containing 100 mM Tris-Cl (pH 6.8), 4% SDS, 10% 2-mercaptoethanol, 20% glycerol, and 0.02% bromophenol blue. Precision Plus Protein Dual colour standards (Bio-Rad) were used as a molecular weight reference. For the detection of STAT3, pSTAT3, α/β tubulin, cleaved PARP, Bcl-2, Bcl-xL, FANCD2, BRCA1, EME1 and MUS81, proteins were separated on a NuPAGE 7% Tris-acetate gel (Life Technologies) and subsequently transferred to polyvinylidene difluoride membranes (Immobilon®-P transfer membrane; Millipore). […]
After drug-treatment cells were harvested by trypsinisation followed by centrifugation. […] TaqMan Gene Expression Assays (Life Technologies) for FANCD2, BRCA1, EME1 and MUS81 were used to quantify changes in gene expression. […] Fold change was calculated using the comparative CT method normalizing to GAPDH expression.
RT-PCR. […] TaqMan Gene Expression Assays (Life Technologies) for FANCD2, BRCA1, EME1 and MUS81 were used to quantify changes in gene expression. […] Fold change was calculated using the comparative CT method normalizing to GAPDH expression.

[2] = tested on: A2780-cisplatin resistant spheroids; assay: CellTiter-Glo 3D cell viability assay, A2780-cisplatin resistant spheroids; settings: 96 h exposure, 3D CellTiter-Glo
Protocol: For cell spheroid formation, HCT116-oxaliplatin resistant cells, A2780-cisplatin resistant cells, and HT1080 cells were seeded in Corning® Spheroid opaque-walled 96 well Microplates (ultra-low attachment; Nuclon™ Sphera™, Thermofisher) at densities of 2000 cells/well in 100 μl of cell solution and allowed to grow for 4 days, before any manipulation.
At the end of drug incubation, both the plates and the CellTitre-Glo® reagent (previously thawn overnight in the fridge) were equilibrated at room temperature for at least 30 min. Subsequently, 100 μl of cell solution were carefully removed from each well, without disrupting the spheroid and equal volume of CellTitre-Glo® reagent was added. Cell lysis was performed by vigorously shaking the plate for 5 min. To stabilize the luminescent signal, the plate was incubated in the dark at RT for another 30 min before luminescence was recorded on a plate reader. The cell viability of treated samples was normalised to the untreated controls.
The cytotoxicity studies in spheroids were conducted using the CellTiter-Glo® 3D Cell viability assay (Promega) following the instructions of the manufacturer.

[3] = tested on: HT1080 fibrosarcoma spheroids; assay: Spheroid invasion assay; settings: 3 μM, 90 h observation
Protocol: Multicellular spheroids from HT-1080 cells were grown for 4 days in RPMI 1640 medium in 96-well plates (Nunclon Sphera, Thermo Fisher) and their size was measured with an inverted microscope (Olympus CKX41, 4× objective) and Cell^F software. […] Growth factor reduced Matrigel (Becton Dickinson) was thawed on ice and diluted in 4° C. cold medium to a final concentration of 300 μg/mL with or without IE-8. One hundred fifty microliter of these solutions were added to the wells containing spheroids in 50 μL medium. The plate was incubated in a humidified atmosphere with 5% CO2 in air at 37° C. Both untreated and treated spheroids were monitored simultaneously with a JuliBr live cell analyzer (NanoEntek) for 90 h to visualize spheroid invasion, and every hour the relative cross-sectional area of the spheroids was measured.

Compound: COc1cc(/C=C2\CN(c3ccccc3)C/C(=C\c3cc(OC)c(OC)c(OC)c3)C2=O)cc(OC)c1OC [IE-8, 3,5-Di(3,4,5-trimethoxybenzylidene)-1-phenylpiperidin-4-one]
- expression of BRCA1, FANCD2, EME1 and MUS81 (mRNA and protein) [1]: markedly downregulated
- IC50 [2]: 3.01 ± 0.41 µM
- rate of confluence (invasion) of spheroids in matrigel [3]: markedly reduced and also delayed
